Test: Pharmacokinetics in beagles (Test Example 5)
Assay type: in vivo
Parameters: unit not given beside the values
Settings: male beagles fasted 18 hours or more, oral, 600 mg of EPA-E, plasma EPA, corrected for pre-dose value
Protocol: The composition or the capsule prepared was orally administered to 6 male beagles (at the age of 2 to 6 years with the body weight of 8 to 13 kg, 3 Marshall beagles and 3 Nosan beagles) under fasting conditions, and blood EPA concentration was evaluated. The test animals were fasted 18 hours or more before the administration, and each animal was administered with the composition at an amount corresponding to 600 mg of the EPA-E. Blood was collected before the administration, and 0.5, 1, 1.5, 2, 3, 4, 6, 8, and 24 hours after the administration, and plasma was separated to measure plasma EPA concentration by LC/MS/MS (a method of separating a sample by liquid chromatography and separating the resultant components by mass spectrometry for measurement). The control group was administered with the EPA-E stock solution encapsulated in a capsule. […] In the calculation of each parameter, the value was corrected by subtracting the blood EPA concentration before the administration of the composition.

AUC0-2 (0 to 2 hours): 11.3
AUC0-24 (0 to 24 hours): 76.6
Compound: CC/C=C\C/C=C\C/C=C\C/C=C\C/C=C\CCCC(=O)OCC [Comp. Ex. 5, Ethyl eicosapentaenoate ester]

— patent US20160158184A1, “SELF-EMULSIFYING COMPOSITION OF OMEGA3 FATTY ACID” (priority 2013, published 2016)
